This series relates to rodent lifetime carcinogenesis bioassay, tumor incidence TD50. As to the kind of experiment: chronic cancer bioassays in animals – CPDB, compiled studies (AID 1745844).

Structures are written as SMILES. Activity calls are given as the source filed them. How the calls were made is not given here.

For the compound `NC(=O)N(CCO)N=O`, the TD50 is, setting by setting: (mouse, strain Swiss, females, in drinking water, site: all sites, lesion: lymphoma, dosed 50 weeks, study length 51 weeks) 0.603 mg/kg/day; (mouse, strain Swiss, females, in drinking water, site: lung, lesion: adenoma, dosed 50 weeks, study length 51 weeks) 1.97 mg/kg/day; (mouse, strain Swiss, males, in drinking water, site: all sites, lesion: lymphoma, dosed 50 weeks, study length 51 weeks) 1.27 mg/kg/day; (mouse, strain Swiss, males, in drinking water, site: any site (literature study), lesion: one or several types, types not named, dosed 50 weeks, study length 51 weeks) 0.353 mg/kg/day; (mouse, strain Swiss, males, in drinking water, site: lung, lesion: adenoma, dosed 50 weeks, study length 51 weeks) 0.382 mg/kg/day; (rat, strain Fischer 344, females, by gavage, site: Zymbal's gland, lesion: carcinoma, dosed 37 weeks, study length 60 weeks) 3.15 mg/kg/day. Further, the TD50 reads like this: (rat, strain Fischer 344, females, by gavage, site: colon, lesion: adenoma, dosed 37 weeks, study length 60 weeks) 1.53 mg/kg/day; (rat, strain Fischer 344, females, by gavage, site: forestomach, lesion: squamous-cell carcinoma, dosed 37 weeks, study length 60 weeks) 3.15 mg/kg/day; (rat, strain Fischer 344, females, by gavage, site: mammary gland, lesion: adenocarcinoma, dosed 37 weeks, study length 60 weeks) 0.452 mg/kg/day; (rat, strain Fischer 344, males, by gavage, site: Zymbal's gland, lesion: carcinoma, dosed 37 weeks, study length 55 weeks) 0.879 mg/kg/day; (rat, strain Fischer 344, males, by gavage, site: Zymbal's gland, lesion: several types, types named in the paper, dosed 37 weeks, study length 55 weeks) 0.568 mg/kg/day; (rat, strain Fischer 344, males, by gavage, site: colon, lesion: adenocarcinoma, dosed 37 weeks, study length 55 weeks) 0.983 mg/kg/day. The TD50 was 0.24 mg/kg/day (rat, strain Fischer 344, males, by gavage, site: colon, lesion: several types, types named in the paper, dosed 37 weeks, study length 55 weeks); 0.203 mg/kg/day (rat, strain Fischer 344, males, by gavage, site: forestomach, lesion: several types, types named in the paper, dosed 37 weeks, study length 55 weeks); 0.637 mg/kg/day (rat, strain Fischer 344, males, by gavage, site: forestomach, lesion: squamous-cell carcinoma, dosed 37 weeks, study length 55 weeks); 0.602 mg/kg/day (rat, strain Fischer 344, males, by gavage, site: lung, lesion: malignant tumor, dosed 37 weeks, study length 55 weeks); 0.0776 mg/kg/day (rat, strain Fischer 344, males, by gavage, site: lung, lesion: several types, types named in the paper, dosed 37 weeks, study length 55 weeks); 3.16 mg/kg/day (rat, strain MRC-Wistar, females, in drinking water, site: all sites, lesion: B-cell lymphoma, dosed 39 weeks, study length 85 weeks). For the same compound, the TD50 was 3.16 mg/kg/day (inactive) (rat, strain MRC-Wistar, females, in drinking water, site: all sites, lesion: myelocytic leukemia, dosed 39 weeks, study length 85 weeks); 0.32 mg/kg/day (rat, strain MRC-Wistar, females, in drinking water, site: any site (literature study), lesion: one or several types, types not named, dosed 39 weeks, study length 85 weeks); 10 mg/kg/day (rat, strain MRC-Wistar, females, in drinking water, site: liver, lesion: one or several types, types not named, dosed 39 weeks, study length 85 weeks); 1.56 mg/kg/day (rat, strain MRC-Wistar, males, in drinking water, site: all sites, lesion: B-cell lymphoma, dosed 39 weeks, study length 85 weeks); 2.03 mg/kg/day (rat, strain MRC-Wistar, males, in drinking water, site: all sites, lesion: lymphocytic lymphoma, dosed 52 weeks, study length 70 weeks); 2.03 mg/kg/day (rat, strain MRC-Wistar, males, in drinking water, site: all sites, lesion: malignant lymphoma, dosed 52 weeks, study length 70 weeks). In addition, the TD50 reads like this: (rat, strain MRC-Wistar, males, in drinking water, site: all sites, lesion: myelocytic leukemia, dosed 39 weeks, study length 85 weeks) 2.02 mg/kg/day (inactive); (rat, strain MRC-Wistar, males, in drinking water, site: any site (literature study), lesion: one or several types, types not named, dosed 39 weeks, study length 85 weeks) 0.195 mg/kg/day; (rat, strain MRC-Wistar, males, in drinking water, site: any site (literature study), lesion: several types, types named in the paper, dosed 52 weeks, study length 70 weeks) 0.36 mg/kg/day; (rat, strain MRC-Wistar, males, in drinking water, site: bone, lesion: osteosarcoma, dosed 39 weeks, study length 85 weeks) 1.56 mg/kg/day; (rat, strain MRC-Wistar, males, in drinking water, site: bone, lesion: osteosarcoma, dosed 52 weeks, study length 70 weeks) 1.52 mg/kg/day; (rat, strain MRC-Wistar, males, in drinking water, site: liver, lesion: one or several types, types not named, dosed 39 weeks, study length 85 weeks) 2.77 mg/kg/day. The TD50 by setting is: (rat, strain Wistar, males, in drinking water, site: all sites, lesion: B-cell lymphoma, dosed 90 weeks, study length 90 weeks) 15.9 mg/kg/day; (rat, strain Wistar, males, in drinking water, site: all sites, lesion: myelocytic leukemia, dosed 90 weeks, study length 90 weeks) 3.66 mg/kg/day; (rat, strain Wistar, males, in drinking water, site: any site (literature study), lesion: one or several types, types not named, dosed 90 weeks, study length 90 weeks) 0.576 mg/kg/day; (rat, strain Wistar, males, in drinking water, site: kidney, lesion: one or several types, types not named, dosed 90 weeks, study length 90 weeks) 4.93 mg/kg/day; (rat, strain Wistar, males, in drinking water, site: lung, lesion: one or several types, types not named, dosed 90 weeks, study length 90 weeks) 1.59 mg/kg/day; (rat, strain Wistar, males, in drinking water, site: mammary gland, lesion: adenocarcinoma, dosed 90 weeks, study length 90 weeks) 4.14 mg/kg/day.

As for `CC(C)CCCCCOC(=O)COc1ccc(Cl)cc1Cl`, the carcinogen call runs as follows: (mouse, strain B6AKF1, females, oral dosing, site: any site (literature study), lesion: several types, types named in the paper, dosed 76 weeks, study length 76 weeks) “negative (inactive)”; (mouse, strain B6AKF1, females, oral dosing, site: liver, lesion: hepatoma, dosed 76 weeks, study length 76 weeks) “negative (inactive)”; (mouse, strain B6AKF1, females, oral dosing, site: lung, lesion: adenoma, dosed 76 weeks, study length 76 weeks) “negative (inactive)”; (mouse, strain B6AKF1, males, oral dosing, site: any site (literature study), lesion: several types, types named in the paper, dosed 76 weeks, study length 76 weeks) “negative (inactive)”; (mouse, strain B6AKF1, males, oral dosing, site: liver, lesion: hepatoma, dosed 76 weeks, study length 76 weeks) “negative (inactive)”; (mouse, strain B6AKF1, males, oral dosing, site: lung, lesion: several types, types named in the paper, dosed 76 weeks, study length 76 weeks) “negative (inactive)”. The carcinogen call is “negative (inactive)” (mouse, strain B6C3F1, females, oral dosing, site: liver, lesion: hepatoma, dosed 76 weeks, study length 76 weeks) and “negative (inactive)” (mouse, strain B6C3F1, males, oral dosing, site: lung, lesion: several types, types named in the paper, dosed 76 weeks, study length 76 weeks). For the same compound, the TD50 (mouse, strain B6C3F1, females, oral dosing, site: any site (literature study), lesion: several types, types named in the paper, dosed 76 weeks, study length 76 weeks) was 24.6 mg/kg/day (inactive); the TD50 (mouse, strain B6C3F1, females, oral dosing, site: lung, lesion: adenoma, dosed 76 weeks, study length 76 weeks) is 34 mg/kg/day (inactive); the TD50 (mouse, strain B6C3F1, males, oral dosing, site: any site (literature study), lesion: several types, types named in the paper, dosed 76 weeks, study length 76 weeks) is 17.7 mg/kg/day (inactive); the TD50 (mouse, strain B6C3F1, males, oral dosing, site: liver, lesion: hepatoma, dosed 76 weeks, study length 76 weeks) was 31.7 mg/kg/day (inactive).

As for `CCN(CC(F)(F)F)N=O`, the TD50 (rat, strain Sprague-Dawley, males, by gavage, site: esophagus, lesion: papillary carcinoma, dosed 88 weeks, study length 88 weeks) was 2.52 mg/kg/day and the TD50 (rat, strain Sprague-Dawley, males, by gavage, site: nasal cavity, lesion: several types, types named in the paper, dosed 88 weeks, study length 88 weeks) was 7.34 mg/kg/day.

Usually TD50 stands for the dose at which the toxic effect under study appears in half of the subjects.

Source of the values: PubChem BioAssay AID1745844 (Carcinogenic Potency Database (CPDB), 2022).
